27 compounds from patent US12139477B2, “Compounds, salts thereof and methods for treatment of diseases” (ACADIA PHARMACEUTICALS INC., priority 2017, dated 2024) can be followed below.

The inhibition is the share of the control response that was lost under treatment. Read a high inhibition as a strong effect.

The target of one series is T1, hERG channel (Homo sapiens, UniProt Q12809).
T1 construct: host or cells: CHO cells, stably transfected
Put plainly: hERG assay, whole cell recordings in CHO cells (AVIVA). In kind it is cell-based. The settings on record: CHO cells stably expressing hERG, pH 7.4. As to the method: The most common mechanism for these adverse events is the inhibition of one or more cardiac potassium channels, in particular hERG. This current is important for cardiac myocyte repolarization and is a common target for drugs that prolong the QT interval. Test articles in this study were therefore characterized to determine their ability to inhibit the hERG channel. Ion channel activity was measured at AVIVA Biosciences Corporation (San Diego, CA), using a stably transfected Chinese Hamster Ovary (CHO) cell line expressing the hERG mRNA.
Cells: AVIVA's CHO cell line, which stably expresses hERG channels, was used for the study. Cells were cultured in DMEM/F12 containing 10% FBS, 1% penicillin/streptomycin and 500 μg/ml G418. Before testing, cells were harvested using Accumax (Innovative Cell Technologies).
Solutions: For electrophysiological recordings, the following solutions were used: External Solution: 2 mM CaCl2); 2 mM MgCl2; 4 mM KCl; 150 mM NaCl; 10 mM Glucose; 10 mM HEPES; 305-315 mOsm; pH 7.4 (adjusted with 5M NaOH); Internal Solution: 140 mM KCl; 10 mM MgCl2; 6 mM EGTA; 5 mM HEPES-Na; 5 mM ATP-Mg; 295-305 mOsm; pH 7.25 (adjusted with 1M KOH).
Electrophysiology: Whole cell recordings were performed using PX 7000A (Axon Instruments) with AVIVA's SealChip™ technology. Cells were voltage clamped at a holding potential of −80 mV. The hERG current was then activated by a depolarizing step to −50 mV for 300 ms. This first step at −50 mV was used as a baseline for measuring peak amplitude of the tail current. Next, a voltage step to +20 mV was applied for 5 s to activate the channels. Finally, a step back to −50 mV for 5 s removed activation and the deactivating tail current was recorded.
Test Article Handling and Dilutions: All test articles were prepared from 10 mM DMSO stock solutions provided by Sponsor. Solutions were mixed by sonication for 20 min, followed by vigorous vortexing. Prior to testing, compounds were diluted to test concentrations in glass vials using External Solution. Dilutions were prepared no longer than 20 min prior to use.
Electrophysiology Procedures: After achieving whole cell configuration, cells were monitored for 90 s to assess stability and then washed with External Solution for 66 s. The voltage protocol previously described was then applied to the cells every 12 s throughout the procedure. Only stable cells with recording parameters above threshold (see Quality Control section) were allowed to enter the drug addition procedure. External solution containing 0.1% DMSO (vehicle) was applied to the cells to establish a baseline. […] Test article solutions were added to cells in 4 separate additions. Cells were kept in test solution until effect of the test article reached steady state, to a maximum of 12 min. Next, 1 μM cisapride (positive control) was added. Finally, washout with External Solution was performed until the recovery current reached steady state.
Data Analysis: Data analysis was performed using DataXpress (Axon Instruments), Clampfit (Axon Instruments) and Origin (OriginLab Corporation) software.

The target in another series is 5HT2A (Homo sapiens, UniProt P28223). Put plainly: Receptor Selection and Amplification (R-SAT) functional assay. In kind it is cell-based. Details: expressed in transfected cells; host or cells: NIH3T3 cells, pSI mammalian expression vector. The settings on record: NIH3T3 cells, Ki from IC50 by Cheng and Prussoff; for Ki: read-out: 5-HT2a (pKi) (R-SAT) (converted). An excerpt:
Receptor Selection and Amplification (R-SAT) Assays. […] The IC50 determined in the RSAT assay was converted into a Ki value using the method of Cheng and Prussoff, Biochem Pharmacol., 1973 Dec. 1; 22(23):3099-108. pKi is the negative of the log(Ki).

Chain of 5HT2A (P28223 whole entry): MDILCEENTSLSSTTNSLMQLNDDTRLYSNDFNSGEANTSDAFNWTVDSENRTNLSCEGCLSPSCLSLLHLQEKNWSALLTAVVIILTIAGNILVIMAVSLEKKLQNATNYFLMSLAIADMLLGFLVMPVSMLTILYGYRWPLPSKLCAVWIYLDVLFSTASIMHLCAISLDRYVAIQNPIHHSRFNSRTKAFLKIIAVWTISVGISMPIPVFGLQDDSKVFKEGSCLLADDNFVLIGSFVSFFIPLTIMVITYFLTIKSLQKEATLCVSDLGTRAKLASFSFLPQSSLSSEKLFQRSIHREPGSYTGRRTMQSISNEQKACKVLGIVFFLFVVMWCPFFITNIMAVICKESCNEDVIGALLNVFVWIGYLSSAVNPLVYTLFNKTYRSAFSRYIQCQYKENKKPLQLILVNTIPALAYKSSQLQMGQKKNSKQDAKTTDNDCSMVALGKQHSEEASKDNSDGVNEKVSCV
T1 sequence (Q12809 whole entry): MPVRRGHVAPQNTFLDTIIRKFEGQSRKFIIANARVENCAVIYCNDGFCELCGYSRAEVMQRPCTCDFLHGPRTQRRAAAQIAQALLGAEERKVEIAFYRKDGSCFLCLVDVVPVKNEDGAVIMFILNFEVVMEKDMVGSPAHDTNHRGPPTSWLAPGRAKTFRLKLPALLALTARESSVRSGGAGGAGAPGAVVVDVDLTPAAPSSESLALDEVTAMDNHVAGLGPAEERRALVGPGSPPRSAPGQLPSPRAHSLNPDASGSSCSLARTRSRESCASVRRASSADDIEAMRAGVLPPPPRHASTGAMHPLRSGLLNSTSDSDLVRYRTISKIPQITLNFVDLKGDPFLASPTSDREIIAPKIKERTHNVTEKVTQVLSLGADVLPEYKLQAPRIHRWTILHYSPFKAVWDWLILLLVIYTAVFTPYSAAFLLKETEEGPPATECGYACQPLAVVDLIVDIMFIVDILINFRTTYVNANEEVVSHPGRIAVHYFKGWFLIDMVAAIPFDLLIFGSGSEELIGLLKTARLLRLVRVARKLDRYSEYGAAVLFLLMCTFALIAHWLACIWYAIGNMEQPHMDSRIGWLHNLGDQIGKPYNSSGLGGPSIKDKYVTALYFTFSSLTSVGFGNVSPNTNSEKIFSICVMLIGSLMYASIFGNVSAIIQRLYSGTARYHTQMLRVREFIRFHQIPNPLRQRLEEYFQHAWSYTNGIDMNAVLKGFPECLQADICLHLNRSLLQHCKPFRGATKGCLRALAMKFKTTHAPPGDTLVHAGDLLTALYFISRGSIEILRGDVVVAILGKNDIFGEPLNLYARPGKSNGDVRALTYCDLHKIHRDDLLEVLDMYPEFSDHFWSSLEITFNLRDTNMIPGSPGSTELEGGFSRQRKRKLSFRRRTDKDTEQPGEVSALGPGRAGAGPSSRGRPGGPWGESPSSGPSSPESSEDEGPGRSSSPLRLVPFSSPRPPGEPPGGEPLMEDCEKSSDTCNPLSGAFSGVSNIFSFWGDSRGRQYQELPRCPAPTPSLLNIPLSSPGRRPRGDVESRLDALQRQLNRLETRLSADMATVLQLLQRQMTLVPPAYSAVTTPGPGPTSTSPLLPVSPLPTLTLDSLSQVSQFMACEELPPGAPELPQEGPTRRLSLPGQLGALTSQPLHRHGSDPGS

On hERG channel, `CN1CCC(N(Cc2ccc(F)cc2F)C(=O)NCc2ccc(OCC3CC3)cc2)CC1` [Example 141, 3-{[4-(cyclopropylmethoxy)phenyl]methyl}-1-[(2,4-difluorophenyl)methyl]-1-(1-methylpiperidin-4-yl)urea] had an inhibition at 1 µM of 42%. Moreover, the Ki on 5HT2A was 0.631 nM.

The compound `CC(C)COc1ccc(CNC(=O)N(Cc2ccc(F)cc2)C2CCN(C)CC2)c(F)c1` [Example 7, 3-{[2-fluoro-4-(2-methylpropoxy)phenyl]methyl}-1-[(4-fluorophenyl)methyl]-1-(1-methylpiperidin-4-yl)urea] had an inhibition at 1 µM at hERG channel of 87%. For the same compound, the Ki on 5HT2A is 2 nM.

At hERG channel, `CN1CCC(N(Cc2ccc(F)cc2F)C(=O)NCc2ccc(OC(C)(C)C)cc2)CC1` [Example 18, 3-{[4-(tert-butoxy)phenyl]methyl}-1-[(2,4-difluorophenyl)methyl]-1-(1-methylpiperidin-4-yl)urea] displayed an inhibition at 1 µM of 17%. Besides, the Ki at 5HT2A is 0.316 nM.

As to `CC(C)Oc1ccc(CNC(=O)N(Cc2ccc(Cl)cc2F)C2CCN(C)CC2)cc1` [Example 137, 1-[(4-chloro-2-fluorophenyl)methyl]-1-(1-methylpiperidin-4-yl)-3-{[4-(propan-2-yloxy)phenyl]methyl}urea; Trifluoroacetic Acid], the inhibition at 1 µM against hERG channel amounted to 37%. For the same compound, the Ki at 5HT2A was 3.98 nM.

`CN1CCC(N(Cc2ccc(F)cc2F)C(=O)NCc2ccc3cn[nH]c3c2)CC1` [Example 41] came in with an inhibition at 1 µM at hERG channel of 23%.

`CC(C)Oc1ccc(CNC(=O)N(Cc2ccc(F)cc2Cl)C2CCN(C)CC2)cc1` [Example 61] gave an inhibition at 1 µM at hERG channel of 23%. Moreover, the Ki at 5HT2A is 15.8 nM.

`Cc1cc(CNC(=O)N(Cc2ccc(F)cc2F)C2CCN(C)CC2)ccc1OC(C)C` [Example 145, 1-[(2,4-difluorophenyl)methyl]-3-{[3-methyl-4-(propan-2-yloxy)phenyl]methyl}-1-(1-methylpiperidin-4-yl)urea; Trifluoroacetic Acid]: at 1 µM the inhibition against hERG channel was 39%. For the same compound, at 5HT2A, the Ki was 1.58 nM.

On hERG channel, `CN1CCC(N(Cc2ccc(F)cc2F)C(=O)NCc2ccc3c(c2)OCCOC3)CC1` [Example 52] registered an inhibition at 1 µM of 8%. Besides, the Ki at 5HT2A was 39.8 nM.

Turning to `COc1cc(CNC(=O)N(Cc2ccc(F)cc2F)C2CCN(C)CC2)ccc1Cl` [Example 98, 3-[(4-chloro-3-methoxyphenyl)methyl]-1-[(2,4-difluorophenyl)methyl]-1-(1-methylpiperidin-4-yl)urea; Trifluoroacetic Acid], at 1 µM the inhibition at hERG channel was 62%. Also, the Ki at 5HT2A is 3.16 nM.

Regarding `CN1CCC(N(Cc2ccc(F)cc2F)C(=O)NCc2ccc3c(c2)CC(C)(C)O3)CC1` [Example 8, 1-[(2,4-difluorophenyl)methyl]-3-[(2,2-dimethyl-2,3-dihydro-1-benzofuran-5-yl)methyl]-1-(1-methylpiperidin-4-yl)urea], at 1 µM the inhibition at hERG channel was 22%. Moreover, the Ki on 5HT2A was 0.794 nM.

In turn, `CN1CCC(N(Cc2ccc(F)cc2F)C(=O)NCc2ccc(OCCCF)cc2)CC1` [Example 151, 3-[(2,4-difluorophenyl)methyl]-1-{[4-(3-fluoropropoxy)phenyl]methyl}-3-(1-methylpiperidin-4-yl)urea; Trifluoroacetic Acid] yielded an inhibition at 1 µM on hERG channel of 16%. At 5HT2A, the Ki was 2 nM.

Compound `CC(C)COc1ccc(CNC(=O)N(Cc2ccc(Cl)cc2F)C2CCN(C)CC2)cc1` [Example 139, 1-[(4-chloro-2-fluorophenyl)methyl]-1-(1-methylpiperidin-4-yl)-3-{[4-(2-methylpropoxy)phenyl]methyl}urea; Trifluoroacetic Acid] displayed an inhibition at 1 µM on hERG channel of 35%. Also, the Ki on 5HT2A is 3.98 nM.

`COc1ccc(CNC(=O)N(Cc2ccc(F)cc2F)C2CCN(C)CC2)cc1` [Example 125, 3-[(2,4-difluorophenyl)methyl]-1-[(4-methoxyphenyl)methyl]-3-(1-methylpiperidin-4-yl)urea] yielded an inhibition at 1 µM at hERG channel of 17%. For the same compound, on 5HT2A, the Ki is 3.98 nM.

On hERG channel, `Cc1nc2cc(CNC(=O)N(Cc3ccc(F)cc3F)C3CCN(C)CC3)ccc2o1` [Example 22] registered an inhibition at 1 µM of 10%.

Turning to `CN1CCC(N(Cc2ccc(F)cc2F)C(=O)NCc2ccc3c(c2)n(C)c(=O)n3C)CC1` [Example 40], on hERG channel, the inhibition at 1 µM stood at 9%.

In turn, `COc1cc(F)c(F)cc1CN(C(=O)NCc1ccc(OC(C)C)cc1)C1CCN(C)CC1` [Example 138, 1-[(4,5-difluoro-2-methoxyphenyl)methyl]-1-(1-methylpiperidin-4-yl)-3-{[4-(propan-2-yloxy)phenyl]methyl}urea; Trifluoroacetic Acid] gave an inhibition at 1 µM at hERG channel of 13%.

Take `COc1ccc(CNC(=O)N(Cc2ccc(F)cc2F)C2CCN(C)CC2)cc1C#N` [Example 48]: the Ki on 5HT2A is 100 nM.

In the case of `COc1ccc(CN(C(=O)NCc2ccc(OCC(C)C)cc2)C2CCN(C)CC2)c(C(F)(F)F)c1` [Example 121, 3-{[4-methoxy-2-(trifluoromethyl)phenyl]methyl}-3-(1-methylpiperidin-4-yl)-1-{[4-(2-methylpropoxy)phenyl]methyl}urea], the Ki at 5HT2A is 126 nM.

With `COc1cc(F)c(CNC(=O)N(Cc2ccc(F)cc2F)C2CCN(C)CC2)c(F)c1` [Example 150, 1-[(2,6-difluoro-4-methoxyphenyl)methyl]-3-[(2,4-difluorophenyl)methyl]-3-(1-methylpiperidin-4-yl)urea; Trifluoroacetic Acid], on 5HT2A, the Ki is 5.01 nM.

For the compound `COc1ccc(CN(C(=O)NCc2ccc(OCC(C)C)cc2)C2CCN(C)CC2)c(Cl)c1` [Example 105, 1-[(2-chloro-4-methoxyphenyl)methyl]-1-(1-methylpiperidin-4-yl)-3-{[4-(2-methylpropoxy)phenyl]methyl}urea; Trifluoroacetic Acid], at 5HT2A, the Ki was 100 nM.

Consider `COc1ccc(CN(C(=O)NCc2ccc(OC(C)C)cc2)C2CCN(C)CC2)c(F)c1` [Example 122, 1-[(2-fluoro-4-methoxyphenyl)methyl]-1-(1-methylpiperidin-4-yl)-3-{[4-(propan-2-yloxy)phenyl]methyl}urea; Trifluoroacetic Acid], for which, at 5HT2A, the Ki was 7.94 nM.

As to `CN1CCC(N(Cc2ccc(F)cc2F)C(=O)NCc2ccc3c(c2)OCO3)CC1` [Example 128, 3-[(2H-1,3-benzodioxol-5-yl)methyl]-1-[(2,4-difluorophenyl)methyl]-1-(1-methylpiperidin-4-yl)urea], the Ki on 5HT2A was 7.94 nM.

`CC(C)COc1ccc(CNC(=O)N(Cc2c(F)cc(Cl)cc2F)C2CCN(C)CC2)cc1` [Example 71]: the Ki at 5HT2A was 12.6 nM.

With `CC(C)Oc1ccc(CNC(=O)N(Cc2ccc(F)cc2F)[C@H]2C[C@H]3CC[C@@H](C2)N3C)cc1` [Example 84, 3-[(2,4-difluorophenyl)methyl]-3-[(1R,3R,5S)-8-methyl-8-azabicyclo[3.2.1]octan-3-yl]-1-{[4-(propan-2-yloxy)phenyl]methyl}urea; Trifluoroacetic Acid], the Ki at 5HT2A was 50.1 nM.

On to `CN1CCC(N(Cc2ccc(F)cc2F)C(=O)NCc2ccc3c(c2)ncn3C)CC1` [Example 55], for which the inhibition at 1 µM against hERG channel amounted to 10%.

Consider `COc1ccc(CNC(=O)N(Cc2ccc(F)cc2F)C2CCNCC2)cc1.COc1ccc(CNC(=O)N(Cc2ccc(F)cc2F)C2CCNCC2)cc1.O=C(O)C(O)C(O)C(=O)O` [Example 126, 1-[(2,4-difluorophenyl)methyl]-3-[(4-methoxyphenyl)methyl]-1-(piperidin-4-yl)urea; Hemitartrate], for which the “5-HT2a (pKi) (R-SAT)” value on 5HT2A stood at 8.1.

On to `CC(C)COc1ccc(CNC(=O)N(Cc2ccc(C(F)(F)F)cc2Cl)C2CCN(C)CC2)cc1` [Example 67], for which the Ki at 5HT2A was 79.4 nM.
